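1) Cells in 96-well plates. 2) Compound, 48 h, 5 concentrations. 3) Linear interpolation between surrounding doses. 4) Unreached endpoint = highest concentration. The concentration for 50% growth inhibition is given as GI50.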 Calls of active or inactive are those of the source. No stated cut-off is given here; in the data, active = GI50 up to about 1.1 µM and inactive = higher. Peptide text beside a SMILES is read from it. * marks the point of attachment. Boc = CC(C)(C)OC(=O)*
Columns and labels:
Assay in all cases: NCI tumour cell line growth inhibition, 48 h
A549 = test system: A549
ACHN = test system: ACHN
CCRF-CEM = test system: CCRF-CEM
COLO 205 = test system: COLO 205
HCT-116 = test system: HCT-116
KM12 = test system: KM12
MDA-MB-231 = test system: MDA-MB-231
Malme-3M = test system: Malme-3M
NCI-H226 = test system: NCI-H226
OVCAR-4 = test system: OVCAR-4
OVCAR-5 = test system: OVCAR-5
OVCAR-8 = test system: OVCAR-8
RPMI-8226 = test system: RPMI-8226
SF-268 = test system: SF-268
SF-539 = test system: SF-539
SN12C = test system: SN12C
SR = test system: SR
UO-31 = test system: UO-31
SK-MEL-2 = test system: SK-MEL-2
CAKI-1 = test system: CAKI-1

Compound | GI50 (A549) | GI50 (ACHN) | GI50 (CCRF-CEM) | GI50 (COLO 205) | GI50 (HCT-116) | GI50 (KM12) | GI50 (MDA-MB-231) | GI50 (Malme-3M) | GI50 (NCI-H226) | GI50 (OVCAR-4) | GI50 (OVCAR-5) | GI50 (OVCAR-8) | GI50 (RPMI-8226) | GI50 (SF-268) | GI50 (SF-539) | GI50 (SN12C) | GI50 (SR) | GI50 (UO-31) | GI50 (SK-MEL-2) | GI50 (CAKI-1)
NC(=S)N/N=C1\CCc2ccccc2C1 | > 100 µM (inactive) | > 100 µM (inactive) | 70.8 µM (inactive) | > 100 µM (inactive) | > 100 µM (inactive) | > 100 µM (inactive) | > 100 µM (inactive) | > 100 µM (inactive) | 32.2 µM (inactive) | > 100 µM (inactive) | > 100 µM (inactive) | > 100 µM (inactive) | > 100 µM (inactive) | > 100 µM (inactive) | > 100 µM (inactive) | > 100 µM (inactive) | > 100 µM (inactive) | > 100 µM (inactive) |  | 
COc1ccc(C2OC(=O)c3c2ccc2ccccc32)c(C)c1 (stereo unspecified) | 3.07 µM (inactive) | 5.93 µM (inactive) |  | 1.15 µM (inactive) | 3.81 µM (inactive) | 2.38 µM (inactive) | 3 µM (inactive) | 1 µM (active) | 5.25 µM (inactive) |  | 13.2 µM (inactive) | 4.06 µM (inactive) | 3.18 µM (inactive) |  |  | 1.21 µM (inactive) | 2.42 µM (inactive) | 5.4 µM (inactive) | 1.34 µM (inactive) | 
Cc1ccc(SC2C(=O)C3CC(OCc4ccccc4)C2(C)C3(C)C)cc1 (stereo unspecified) | > 100 µM (inactive) | > 100 µM (inactive) | 73.8 µM (inactive) |  | 9.66 µM (inactive) | > 100 µM (inactive) | > 100 µM (inactive) | > 100 µM (inactive) | > 100 µM (inactive) |  | > 100 µM (inactive) | > 100 µM (inactive) |  | > 100 µM (inactive) | > 100 µM (inactive) | > 100 µM (inactive) | 51.3 µM (inactive) | > 100 µM (inactive) | 38.7 µM (inactive) | 
O=C(/C=C/c1ccc(Cl)cc1)c1nc2ccccc2[nH]1 | 25.4 µM (inactive) | 48.9 µM (inactive) | 3.54 µM (inactive) | 16.6 µM (inactive) | 16.7 µM (inactive) | 1.6 µM (inactive) | 23.1 µM (inactive) | > 100 µM (inactive) | 27.5 µM (inactive) | 19 µM (inactive) | 95.7 µM (inactive) | 34.8 µM (inactive) | 2.19 µM (inactive) | 14.2 µM (inactive) | 6.98 µM (inactive) | 37.2 µM (inactive) |  | 10.9 µM (inactive) | > 100 µM (inactive) | 3.44 µM (inactive)
CN(C)c1c(C2CC(O)C(CO)O2)c(=O)c1=O (stereo unspecified) | > 100 µM (inactive) | > 100 µM (inactive) |  |  | > 100 µM (inactive) | > 100 µM (inactive) | > 100 µM (inactive) |  | 77.1 µM (inactive) | > 100 µM (inactive) | > 100 µM (inactive) | > 100 µM (inactive) | > 100 µM (inactive) | > 100 µM (inactive) | > 100 µM (inactive) | > 100 µM (inactive) | > 100 µM (inactive) | > 100 µM (inactive) | > 100 µM (inactive) | 
C[C@]12CC[C@H]3[C@@H](CC=C4C[C@@H](O)CC[C@@]43C)[C@@H]1CC[C@@H]2N(CCO)CCO | 42 µM (inactive) | 30.7 µM (inactive) | 46.2 µM (inactive) | 44.3 µM (inactive) | 26.9 µM (inactive) | 54.5 µM (inactive) | > 100 µM (inactive) | 31 µM (inactive) | > 100 µM (inactive) | > 100 µM (inactive) | 55.1 µM (inactive) | 88.5 µM (inactive) | > 100 µM (inactive) | 36 µM (inactive) | 54.7 µM (inactive) | 33 µM (inactive) |  | 51.8 µM (inactive) | 76.2 µM (inactive) | 45.3 µM (inactive)
Cc1ccc2n(c1)cc(-c1ccc(/C=N/NC(=N)N/N=C/c3ccc(-c4cn5cc(C)ccc5[n+]4C)cc3)cc1)[n+]2C | > 100 µM (inactive) | 40.2 µM (inactive) | > 100 µM (inactive) | > 100 µM (inactive) | > 100 µM (inactive) | > 100 µM (inactive) | > 100 µM (inactive) |  |  | 26.9 µM (inactive) | > 100 µM (inactive) | > 100 µM (inactive) | > 100 µM (inactive) | 21.4 µM (inactive) | 39.8 µM (inactive) | > 100 µM (inactive) | > 100 µM (inactive) | 25.6 µM (inactive) |  | 
C=C(C)[C@H]1CC(=O)/C(C)=C\CC/C(C)=C/CC[C@@]2(C)O[C@@H]2C1 | 15.8 µM (inactive) | 29.4 µM (inactive) | 35.1 µM (inactive) | 16.5 µM (inactive) | 16 µM (inactive) | 20.8 µM (inactive) | 34.2 µM (inactive) | 36.8 µM (inactive) |  | 22 µM (inactive) | 35.4 µM (inactive) | 35.5 µM (inactive) | 20.7 µM (inactive) | 23 µM (inactive) | 20 µM (inactive) | 20.8 µM (inactive) | 25.4 µM (inactive) | 20.7 µM (inactive) | 35.8 µM (inactive) | 1.99 µM (inactive)
O=C(Cc1ccccc1)NNc1nc(NNC(=O)c2ccncc2)nc(Nc2ccccc2)n1 |  |  | > 10 µM (inactive) | > 10 µM (inactive) |  | > 10 µM (inactive) | > 10 µM (inactive) | > 10 µM (inactive) |  | > 10 µM (inactive) |  | > 10 µM (inactive) | > 10 µM (inactive) | > 10 µM (inactive) | > 10 µM (inactive) | > 10 µM (inactive) | > 10 µM (inactive) | 1.12 µM (active) |  | > 10 µM (inactive)
CSCCC(NC(=O)C(CC(C)C)NC(=O)CNC(=O)OC(C)(C)C)C(=O)N(C)C (stereo not drawn) (Boc-Gly-Leu-Met-NMe2; configuration not given here) | > 100 µM (inactive) | > 100 µM (inactive) | > 100 µM (inactive) | > 100 µM (inactive) | > 100 µM (inactive) | > 100 µM (inactive) | > 100 µM (inactive) | 87.7 µM (inactive) | > 100 µM (inactive) | > 100 µM (inactive) | > 100 µM (inactive) | > 100 µM (inactive) |  | > 100 µM (inactive) | > 100 µM (inactive) | > 100 µM (inactive) | > 100 µM (inactive) | > 100 µM (inactive) | > 100 µM (inactive) | > 100 µM (inactive)
Nc1ccc(-c2nc3ccccc3s2)cc1F | 21.3 µM (inactive) | 22 µM (inactive) | 5.47 µM (inactive) | 20.9 µM (inactive) | 15.5 µM (inactive) | 28.5 µM (inactive) | 13.6 µM (inactive) | 42 µM (inactive) | < 0.01 µM (active) | 18.7 µM (inactive) |  | > 100 µM (inactive) |  | 34 µM (inactive) |  | 27.7 µM (inactive) | 23.6 µM (inactive) | 14.2 µM (inactive) | 19.2 µM (inactive) | 19.5 µM (inactive)
C=CCCCCOC1C=CC(OC(C)=O)C(COC(C)=O)O1 (stereo unspecified) | > 100 µM (inactive) | > 100 µM (inactive) | > 100 µM (inactive) | > 100 µM (inactive) | > 100 µM (inactive) | > 100 µM (inactive) | > 100 µM (inactive) | > 100 µM (inactive) | > 100 µM (inactive) | > 100 µM (inactive) | > 100 µM (inactive) | > 100 µM (inactive) | > 100 µM (inactive) | > 100 µM (inactive) | > 100 µM (inactive) | > 100 µM (inactive) |  | > 100 µM (inactive) | > 100 µM (inactive) | > 100 µM (inactive)
C(=N\NC1=NCCCN1)/c1ccc(-c2cn3cc(/C=N/NC4=NCCCN4)ccc3n2)cc1 | 24.6 µM (inactive) | 42 µM (inactive) | > 41.9 µM (inactive) | > 100 µM (inactive) | > 88.3 µM (inactive) | > 58.1 µM (inactive) | > 72.6 µM (inactive) | 19 µM (inactive) | 45.3 µM (inactive) | > 100 µM (inactive) | > 100 µM (inactive) | > 50.2 µM (inactive) | > 27.9 µM (inactive) | > 100 µM (inactive) | > 61.7 µM (inactive) | > 100 µM (inactive) |  | > 100 µM (inactive) | > 100 µM (inactive) | 37 µM (inactive)
O=C1/C(=C\c2cccc(Oc3ccccc3)c2)S(=O)(=O)C(c2ccccc2)N1Cc1ccccc1 (stereo unspecified) | 49.2 µM (inactive) | 23 µM (inactive) | 24.5 µM (inactive) | 27 µM (inactive) | 31 µM (inactive) | 23.1 µM (inactive) | 25.6 µM (inactive) | 18.4 µM (inactive) |  |  | 57 µM (inactive) | 17.8 µM (inactive) |  |  | 36.4 µM (inactive) | 26.6 µM (inactive) | 14.9 µM (inactive) | 18.7 µM (inactive) | 16.3 µM (inactive) | 26.6 µM (inactive)
CN(NC(=O)CCCl)C1=NCCCCN1 | > 100 µM (inactive) | > 100 µM (inactive) | > 100 µM (inactive) | > 100 µM (inactive) | > 100 µM (inactive) | > 100 µM (inactive) | > 100 µM (inactive) | > 100 µM (inactive) | > 100 µM (inactive) | > 100 µM (inactive) | > 100 µM (inactive) | > 100 µM (inactive) | > 100 µM (inactive) | > 100 µM (inactive) | > 100 µM (inactive) | > 100 µM (inactive) | > 100 µM (inactive) | > 100 µM (inactive) | > 100 µM (inactive) | 
